Test results as given in patent publication US10208033B2, “β-carboline, dihydro-β-carboline and tetrahydro-β-carboline alkaloid derivatives and preparation methods same and use in aspects of preventing and treating plant viruses, fungicides and insecticides” (NANKAI UNIVERSITY, priority 2013, dated 2019).
Counter-ions that a name gives are not always drawn.

Legend:
[1] = tested on: tobacco mosaic virus (TMV); test: Anti-TMV in vitro effect (half-leaf soaking); type: cell-based, tobacco mosaic virus (host Nicotiana tabacum L.cv.Xanthi NN)
[2] = tested on: tobacco mosaic virus (TMV); test: Anti-TMV in vivo inactivation; set-up: species or system tobacco mosaic virus (host Nicotiana tabacum L.cv.Xanthi NN)
[3] = tested on: tobacco mosaic virus (TMV); test: Anti-TMV in vivo therapeutic effect; set-up: species or system tobacco mosaic virus (host Nicotiana tabacum L.cv.Xanthi NN)
[4] = tested on: tobacco mosaic virus (TMV); test: Anti-TMV in vivo protective effect; set-up: species or system tobacco mosaic virus (host Nicotiana tabacum L.cv.Xanthi NN)
cucumber fusarium wilt = test: Fungicidal (bactericidal) activity in vitro, PDA colony diameter; type: cell-based; settings: 50 mg/kg
Cercospora arachidicola = test: as above; type: cell-based; settings: 50 mg/kg
Macrophoma kawatsukai = test: as above; type: cell-based; settings: 50 mg/kg
Alternaria solani = test: as above; type: cell-based; settings: 50 mg/kg
Fusarium graminearumt = test: microbe, parasite or virus in culture; type: cell-based; settings: 50 mg/kg
potato late blight = test: microbe, parasite or virus in culture; type: cell-based
Sclerotinia scleotiorum = test: Fungicidal (bactericidal) activity in vitro, PDA colony diameter; type: cell-based; settings: 50 mg/kg
Botrytis cinerea = test: as above; type: cell-based; settings: 50 mg/kg
Rhizoctonia solani = test: as above; type: cell-based; settings: 50 mg/kg
Phytophthora capsici = test: as above; type: cell-based; settings: 50 mg/kg
Fusarium fujikuroi = test: as above; type: cell-based; settings: 50 mg/kg
Rhizoctonia cereali = test: as above; type: cell-based; settings: 50 mg/kg
Bipolaria maydis = test: organism not typed; type: cell-based; settings: 50 mg/kg
[5] = tested on: Colletotrichum orbiculare; test: Fungicidal (bactericidal) activity in vitro, PDA colony diameter; type: cell-based; settings: 50 mg/kg
armyworms = type: in vivo; settings: concentration 600 mg/kg
cotton bollworms = test: whole plant or invertebrate; settings: concentration 600 mg/kg
Procedure: Experimental method of cotton bollworms: feed and drug mixing method: measure 3 mL of prepared solution and add it to about 27 g of newly prepared feed, thereby obtaining needed concentration through dilution by 10 times.

mosquito larvae = test: whole plant or invertebrate; settings: 24 h
Procedure, shortened: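 Compound dissolved in acetone (or other solvent) to a 1000 ppm stock and diluted in water to 5 ppm. Ten Culex pipiens pallens larvae at the start of the fourth instar, laboratory-reared, added per beaker; solvent-only aqueous control.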

corn borers = settings: concentration 600 mg/kg

SMILES	Relative inhibition rate (%) In vitro activity ([1]; treatment dose 100 μg/mL) [%]	Relative inhibition rate (%) In vitro activity ([1]; treatment dose 500 μg/mL) [%]	Relative inhibition rate (%) In vivo inactivation ([2]; treatment dose 100 μg/mL) [%]	Relative inhibition rate (%) In vivo inactivation ([2]; treatment dose 500 μg/mL) [%]	Relative inhibition rate (%) In vivo therapy ([3]; treatment dose 100 μg/mL) [%]	Relative inhibition rate (%) In vivo therapy ([3]; treatment dose 500 μg/mL) [%]	Relative inhibition rate (%) In vivo protection ([4]; treatment dose 100 μg/mL) [%]	Relative inhibition rate (%) In vivo protection ([4]; treatment dose 500 μg/mL) [%]	Bactericidal activity (%) Cucumber fusarium wilt (cucumber fusarium wilt) [%]	Bactericidal activity (%) Cercospora arachidicola (Cercospora arachidicola) [%]	Bactericidal activity (%) Macrophoma kawatsukai (Macrophoma kawatsukai) [%]	Bactericidal activity (%) Alternaria solani (Alternaria solani) [%]	Bactericidal activity (%) Fusarium graminearumt (Fusarium graminearumt) [%]	Bactericidal activity (%) potato late blight (potato late blight) [%]	Bactericidal activity (%) Sclerotinia scleotiorum (Sclerotinia scleotiorum) [%]	Bactericidal activity (%) Botrytis cinerea (Botrytis cinerea) [%]	Bactericidal activity (%) Rhizoctonia solani (Rhizoctonia solani) [%]	Bactericidal activity (%) Phytophthora capsici (Phytophthora capsici) [%]	Bactericidal activity (%) Fusarium fujikuroi (Fusarium fujikuroi) [%]	Bactericidal activity (%) Rhizoctonia cereali (Rhizoctonia cereali) [%]	also measured
CCOC(=O)[C@@H]1Cc2c([nH]c3ccccc23)CN1 [Ib-7, (S)-2,3,4,9-tetrahydropyridino [3,4-b] indol-3-ethyl formate]	12.3	26.9	19.3	36.5	15.9	30.7	16.2	40.1	33.3	42.9	64.7	50.0	42.9	40.0	60.0	50.0	42.9	66.7	64.3	78.1	Bactericidal activity (%) Bipolaria maydis (Bipolaria maydis): 42.1%; Bactericidal activity (%) Colletotrichum orbiculare [5]: 47.6%; Armyworm Mortality (%) (armyworms): 5%; Cotton bollworm Mortality (%) (cotton bollworms): 20%; Mosquito larvae Mortality (%) (mosquito larvae; concentration 10 mg/kg): 15%; Corn borer Mortality (%) (corn borers): 5%
CCCCOC(=O)[C@@H]1Cc2c([nH]c3ccccc23)[C@H](C)N1 [Ib-8, (1S, 3S)-1-methyl-2,3,4,9-tetrahydropyridino [3,4-b] indol-3-butyl formate]	13.4	48.2	20.3	51.3	17.1	42.2	17.6	43.2	33.3	71.4	64.7	83.3	50.0	35.0	72.0	50.0	55.4	51.5	50.0	84.4	Bactericidal activity (%) Bipolaria maydis (Bipolaria maydis): 89.5%; Bactericidal activity (%) Colletotrichum orbiculare [5]: 38.1%; Armyworm Mortality (%) (armyworms): 5%; Cotton bollworm Mortality (%) (cotton bollworms): 20%; Mosquito larvae Mortality (%) (mosquito larvae; concentration 10 mg/kg): 10%; Corn borer Mortality (%) (corn borers): 0%
CCOC(=O)C1Cc2c([nH]c3ccccc23)CN1 (centres unmarked) [Ib-9, 2,3,4,9-tetrahydropyridino [3,4-b] indol-3-ethyl formate]	12.8	44.5	16.9	41	14.3	42.7	17.2	40.4	19.2	84.6	21.4	26.3	35.7	22.7	19.6	12.1	35.5	15.6	14.3	44.7	Bactericidal activity (%) Bipolaria maydis (Bipolaria maydis): 22.7%; Bactericidal activity (%) Colletotrichum orbiculare [5]: 42.9%; Armyworm Mortality (%) (armyworms): 15%; Cotton bollworm Mortality (%) (cotton bollworms): 10%; Mosquito larvae Mortality (%) (mosquito larvae; concentration 10 mg/kg): 35%; Corn borer Mortality (%) (corn borers): 10%
CCOC(=O)[C@@H]1Cc2c([nH]c3ccccc23)[C@H](CC)N1 [Ib-10, (1S, 3S)-1-ethyl-2,3,4,9-tetrahydropyridino [3,4-b] indol-3-ethyl formate]	0	34.1	12.6	46.4	11.4	38.1	10.7	36.6	23.8	21.4	64.7	55.6	35.7	30.0	56.0	40.9	21.4	45.5	35.7	65.6	Bactericidal activity (%) Bipolaria maydis (Bipolaria maydis): 31.6%; Bactericidal activity (%) Colletotrichum orbiculare [5]: 42.9%; Armyworm Mortality (%) (armyworms): 30%; Cotton bollworm Mortality (%) (cotton bollworms): 15%; Mosquito larvae Mortality (%) (mosquito larvae; concentration 10 mg/kg): 60%; Corn borer Mortality (%) (corn borers): 25%
CCOC(=O)[C@H]1Cc2c([nH]c3ccccc23)[C@@H](C)N1 [Ib-12, (1R,3R)-1-methyl-2,3,4,9-tetrahydropyridino [3,4-b] indol-3-ethyl formate]	12.6	40	16.7	35.8	12.9	38.6	17	41.9	19.2	92.3	54.8	26.3	26.2	18.2	17.7	24.2	42.1	9.4	28.6	39.5	Bactericidal activity (%) Bipolaria maydis (Bipolaria maydis): 18.2%; Bactericidal activity (%) Colletotrichum orbiculare [5]: 25.0%; Armyworm Mortality (%) (armyworms): 50%; Cotton bollworm Mortality (%) (cotton bollworms): 30%; Mosquito larvae Mortality (%) (mosquito larvae; concentration 5 mg/kg): 40%; Mosquito larvae Mortality (%) (mosquito larvae; concentration 10 mg/kg): 100%; Corn borer Mortality (%) (corn borers): 50%
